Assay results published in the supplement of paper PMC10307832.

Experiments:
Test in all cases: relative viability (nuclei count vs DMSO), 5 days (fraction); higher = more cells survive
NCI-H2023 = tested on: NCI-H2023
Procedure, shortened: (§1)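 Lung cancer cell lines in 1536-well plates got either a single drug or a fixed anchor-drug dose together with five library-drug doses (not always all listed) in √10 steps, by pin tool, on the day after seeding. Nuclei were counted after 5 days, and relative viability is the treated-to-vehicle ratio of nuclei counts. Values are medians of duplicate plates.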

NCI-H2405 = tested on: NCI-H2405
Procedure, shortened: as §1

SW 1573 = tested on: SW 1573
Procedure, shortened: as §1

NCI-H2009 = tested on: NCI-H2009
Procedure, shortened: as §1

NCI-H520 = tested on: NCI-H520
Procedure, shortened: as §1

NCI-H2347 = tested on: NCI-H2347
Procedure, shortened: as §1

NCI-H1793 = tested on: NCI-H1793
Procedure, shortened: as §1

NCI-H441 = tested on: NCI-H441
Procedure, shortened: as §1

LOU-NH91 = tested on: LOU-NH91
Procedure, shortened: as §1

NCI-H650 = tested on: NCI-H650
Procedure, shortened: as §1

ChaGo-K-1 = tested on: ChaGo-K-1
Procedure, shortened: as §1

EMC-BAC-2 = tested on: EMC-BAC-2
Procedure, shortened: as §1

NCI-H1437 = tested on: NCI-H1437
Procedure, shortened: as §1

SW 900 = tested on: SW 900
Procedure, shortened: as §1

NCI-H2170 = tested on: NCI-H2170
Procedure, shortened: as §1

HOP-62 = tested on: HOP-62
Procedure, shortened: as §1

HCC-44 = tested on: HCC-44
Procedure, shortened: as §1

NCI-H460 = tested on: NCI-H460
Procedure, shortened: as §1

NCI-H727 = tested on: NCI-H727
Procedure, shortened: as §1

NCI-H647 = tested on: NCI-H647
Procedure, shortened: as §1

EPLC-272H = tested on: EPLC-272H
Procedure, shortened: as §1

NCI-H2126 = tested on: NCI-H2126
Procedure, shortened: as §1

Compound `COCC1(CO)C(=O)C2CCN1CC2` (stereo not given) [PRIMA-1MET] + CC(=O)Nc1cccc(-n2c(=O)n(C3CC3)c(=O)c3c(Nc4ccc(I)cc4F)n(C)c(=O)c(C)c32)c1 [Trametinib] (partner 0.02 µM) has a relative viability (NCI-H2023; first compound 0.2 µM) of 0.681, a relative viability (NCI-H2023; first compound 0.6325 µM) of 0.556 and a relative viability (NCI-H2023; first compound 2 µM) of 0.603. For the same compound, the relative viability (NCI-H2023; first compound 6.325 µM) was 0.711, the relative viability (NCI-H2023; first compound 20 µM) was 0.546 and the relative viability (NCI-H2405; first compound 0.2 µM) was 0.399. For the same compound, the relative viability (NCI-H2405; first compound 0.6325 µM) was 0.598, the relative viability (NCI-H2405; first compound 6.325 µM) was 0.463 and the relative viability (NCI-H2405; first compound 20 µM) was 0.0947. It also gave a relative viability (SW 1573; first compound 0.2 µM) of 0.604, a relative viability (SW 1573; first compound 0.6325 µM) of 0.54 and a relative viability (SW 1573; first compound 2 µM) of 0.409. The relative viability (SW 1573; first compound 6.325 µM) was 0.0772, the relative viability (SW 1573; first compound 20 µM) was 0.024 and the relative viability (NCI-H2009; first compound 0.2 µM) was 0.246. For the same compound, the relative viability (NCI-H2009; first compound 0.6325 µM) was 0.306, the relative viability (NCI-H2009; first compound 2 µM) was 0.237 and the relative viability (NCI-H2009; first compound 6.325 µM) was 0.252. For the same compound, the relative viability (NCI-H2009; first compound 20 µM) was 0.0028, the relative viability (NCI-H520; first compound 0.2 µM) was 0.463 and the relative viability (NCI-H520; first compound 2 µM) was 0.455. The relative viability (NCI-H520; first compound 6.325 µM) was 0.76, the relative viability (NCI-H520; first compound 20 µM) was 0.0736 and the relative viability (NCI-H2347; first compound 0.2 µM) was 0.286. For the same compound, the relative viability (NCI-H2347; first compound 0.6325 µM) was 0.303, the relative viability (NCI-H2347; first compound 2 µM) was 0.255 and the relative viability (NCI-H2347; first compound 6.325 µM) was 0.225. It also gave a relative viability (NCI-H2347; first compound 20 µM) of 0.24, a relative viability (NCI-H1793; first compound 0.2 µM) of 0.365 and a relative viability (NCI-H1793; first compound 0.6325 µM) of 0.41. It also gave a relative viability (NCI-H1793; first compound 6.325 µM) of 0.361, a relative viability (NCI-H1793; first compound 20 µM) of 0.517 and a relative viability (NCI-H441; first compound 0.2 µM) of 0.418. For the same compound, the relative viability (NCI-H441; first compound 0.6325 µM) was 0.297, the relative viability (NCI-H441; first compound 2 µM) was 0.369 and the relative viability (NCI-H441; first compound 6.325 µM) was 0.399. The relative viability (NCI-H441; first compound 20 µM) was 0.267, the relative viability (LOU-NH91; first compound 0.2 µM) was 0.842 and the relative viability (LOU-NH91; first compound 0.6325 µM) was 0.801. It also gave a relative viability (LOU-NH91; first compound 2 µM) of 0.793, a relative viability (LOU-NH91; first compound 6.325 µM) of 0.831 and a relative viability (LOU-NH91; first compound 20 µM) of 0.535. The relative viability (NCI-H650; first compound 0.2 µM) was 0.58, the relative viability (NCI-H650; first compound 0.6325 µM) was 0.965 and the relative viability (NCI-H650; first compound 2 µM) was 0.762. For the same compound, the relative viability (NCI-H650; first compound 6.325 µM) was 0.833, the relative viability (NCI-H650; first compound 20 µM) was 0.0675 and the relative viability (ChaGo-K-1; first compound 0.2 µM) was 0.996. For the same compound, the relative viability (ChaGo-K-1; first compound 0.6325 µM) was 0.735, the relative viability (ChaGo-K-1; first compound 2 µM) was 0.849 and the relative viability (ChaGo-K-1; first compound 6.325 µM) was 0.891. The relative viability (ChaGo-K-1; first compound 20 µM) was 0.857, the relative viability (EMC-BAC-2; first compound 0.2 µM) was 0.637 and the relative viability (EMC-BAC-2; first compound 0.6325 µM) was 0.904. The relative viability (EMC-BAC-2; first compound 2 µM) was 0.907, the relative viability (EMC-BAC-2; first compound 6.325 µM) was 0.734 and the relative viability (EMC-BAC-2; first compound 20 µM) was 0.91. It also gave a relative viability (NCI-H1437; first compound 0.2 µM) of 0.631, a relative viability (NCI-H1437; first compound 0.6325 µM) of 0.525 and a relative viability (NCI-H1437; first compound 2 µM) of 0.449. The relative viability (NCI-H1437; first compound 6.325 µM) was 0.546, the relative viability (NCI-H1437; first compound 20 µM) was 0.479 and the relative viability (SW 900; first compound 0.2 µM) was 0.615. It also gave a relative viability (SW 900; first compound 0.6325 µM) of 0.765, a relative viability (SW 900; first compound 6.325 µM) of 0.676 and a relative viability (SW 900; first compound 20 µM) of 0.131. The relative viability (NCI-H2170; first compound 0.2 µM) was 0.914, the relative viability (NCI-H2170; first compound 0.6325 µM) was 0.911 and the relative viability (NCI-H2170; first compound 2 µM) was 0.887. The relative viability (NCI-H2170; first compound 6.325 µM) was 0.975, the relative viability (NCI-H2170; first compound 20 µM) was 0.964 and the relative viability (HOP-62; first compound 0.2 µM) was 0.217. For the same compound, the relative viability (HOP-62; first compound 0.6325 µM) was 0.34, the relative viability (HOP-62; first compound 2 µM) was 0.334 and the relative viability (HOP-62; first compound 6.325 µM) was 0.344. It also gave a relative viability (HOP-62; first compound 20 µM) of 0.364, a relative viability (HCC-44; first compound 0.2 µM) of 1.01 and a relative viability (HCC-44; first compound 0.6325 µM) of 0.951. It also gave a relative viability (HCC-44; first compound 2 µM) of 1.12, a relative viability (HCC-44; first compound 6.325 µM) of 1.07 and a relative viability (HCC-44; first compound 20 µM) of 1.03. The relative viability (NCI-H460; first compound 0.2 µM) was 0.0362, the relative viability (NCI-H460; first compound 0.6325 µM) was 0.0885 and the relative viability (NCI-H460; first compound 2 µM) was 0.0744. The relative viability (NCI-H460; first compound 6.325 µM) was 0.136, the relative viability (NCI-H460; first compound 20 µM) was 0.0091 and the relative viability (NCI-H727; first compound 0.2 µM) was 0.423. It also gave a relative viability (NCI-H727; first compound 0.6325 µM) of 0.322, a relative viability (NCI-H727; first compound 6.325 µM) of 0.413 and a relative viability (NCI-H727; first compound 20 µM) of 0.377. For the same compound, the relative viability (NCI-H647; first compound 0.2 µM) was 0.306, the relative viability (NCI-H647; first compound 0.6325 µM) was 0.537 and the relative viability (NCI-H647; first compound 2 µM) was 0.279. It also gave a relative viability (NCI-H647; first compound 6.325 µM) of 0.456, a relative viability (NCI-H647; first compound 20 µM) of 0.413 and a relative viability (EPLC-272H; first compound 0.2 µM) of 0.281. The relative viability (EPLC-272H; first compound 0.6325 µM) was 0.303, the relative viability (EPLC-272H; first compound 2 µM) was 0.272 and the relative viability (EPLC-272H; first compound 6.325 µM) was 0.29. It also gave a relative viability (EPLC-272H; first compound 20 µM) of 0.216, a relative viability (NCI-H2126; first compound 0.2 µM) of 0.604 and a relative viability (NCI-H2126; first compound 0.6325 µM) of 0.47. It also gave a relative viability (NCI-H2126; first compound 2 µM) of 0.597, a relative viability (NCI-H2126; first compound 6.325 µM) of 0.577 and a relative viability (NCI-H2126; first compound 20 µM) of 0.543.
